Experiments:
[1] = tested on: NCI-H1299; assay: MTS assay, NCI-H1299 cells; format: cell-based; conditions: 72 hours; for NCI-H1299, MTS cell kill % inhibition: 10 μM; for inhibition at 10 µM: Homo sapiens, read-out: NCI-H1299, MTS cell kill % inhibition
Procedure: (§1) Cells were maintained at 37° C., 5% CO2 in DMEM media supplemented with 1% fetal bovine serum, penicillin/streptomycin and fungizone (Invitrogen). Cells were seeded into 96-well tissue culture plates at 3000 per well and cultured at 37° C. for 18 hours. Test compounds were dissolved and diluted to 300× in DMSO then diluted 1:40 in DMEM. Cells were incubated with test compounds for 72 hours followed by incubation with tetrazolium compound (3-(4,5-dimethylthiazol-2-yl)-5-(3-carboxymethoxyphenyl)-2-(4-sulfophenyl)-2H-tetrazolium, inner salt; MTS) and the electron coupling reagent, phenazine methosulfate (PMS) for 4 hours. […] The ability of compounds to inhibit cell growth in this assay is correlated with the reduction of dehydrogenase enzyme activity found in metabolically active cells. The measurement of the absorbance of the formazan was assessed using an ENVISION™ (Perkin Elmer) microplate reader at 492 nm. The calculated IC50 value is the concentration of the test compound that causes a 50% decrease in the absorbance.

[2] = tested on: MDA-MB-231; assay: MTS assay, MDA-MB-231 cells; format: cell-based; conditions: 72 hours; for MDA-MB-231, MTS cell kill % inhibition: 10 μM; for inhibition at 10 µM: Homo sapiens, read-out: MDA-MB-231, MTS cell kill % inhibition
Procedure: as §1

[3] = target: IGF-1R (Homo sapiens, UniProt P08069); assay: IGFR1 activity assay (ELISA); format: biochemical; conditions: for inhibition at 30 µM: read-out: IGF-1R, PCT INH (30 μM), ELISA
Procedure: The disclosed compounds were assayed for their ability to inhibit insulin-like growth factor receptor-1 (IGFR1). Nunc Maxisorb plates were coated with streptavidin by overnight incubation with 100 μL per well of 1 μg/ml Streptavidin in DPBS. Prior to the start of the experiment, the plates were washed with TBST (3×200 μL) and blocked for at least 1 hour by adding 150 μL of 5% BSA/TBST. The plates were washed with TBST (3×200 μL/well) and left to dry immediately before the capture step.
The disclosed test articles and controls (Staurosporine) were prepared using the following assay buffer at 3× desired final concentration (50 mM Tris-HCl, 0.02 mg/ml BSA, 10 mM MgCl2, 0.1 mM Na3VO4, 1 mM EGTA, 12.5 μM ATP, 0.01% NP-40, 1 mM DTT in 10% glycerol/water). 20 μL of the test compounds (or control), 20 μL IGF1R (0.33 ng/μL final concentration), and 20 μL of Pyk-2 (0.05 ng/μL final concentration) were rapidly added to the reaction plate. The plate was incubated at room temperature for one hour.
50 μL was transferred from the reaction plate to the streptavidin coated plate. The capture plate was incubated at room temperature for 30 minutes, then washed with TBST three times. 100 μL/well of Cell Signaling anti-phospho tyrosine was added to the capture plate at a dilution of 1:3000 in 2% BSA/TBST. The plate was incubated for one hour at room temperature then washed 6× with TBST. 100 μL/well of alkaline phosphatase tagged goat anti mouse antibody was added to the capture plate at a dilution of 1:4000 in 2% BSA/TBST. The plate was incubated for one hour at room temperature then washed with TBST six times.
The fluorescent readout is initiated by the addition of 100 μL/well of Attophos reagent (6 mg/10 mL). The reading is done on the Perkin Elmer Envision system.

[4] = tested on: DLD-1; assay: MTS assay, DLD-1 cells; format: cell-based; conditions: 72 hours; for DLD-1, MTS cell kill % inhibition: 10 μM; for inhibition at 10 µM: Homo sapiens, read-out: DLD-1, MTS cell kill % inhibition
Procedure: as §1

[5] = tested on: KATO III; assay: MTS assay, KATO III cells; format: cell-based; conditions: 72 hours; for KATO III, MTS cell kill % inhibition: 10 μM; for inhibition at 10 µM: Homo sapiens, read-out: KATO III, MTS cell kill % inhibition
Procedure: as §1

IGF-1R, sequence (P08069 31-1367): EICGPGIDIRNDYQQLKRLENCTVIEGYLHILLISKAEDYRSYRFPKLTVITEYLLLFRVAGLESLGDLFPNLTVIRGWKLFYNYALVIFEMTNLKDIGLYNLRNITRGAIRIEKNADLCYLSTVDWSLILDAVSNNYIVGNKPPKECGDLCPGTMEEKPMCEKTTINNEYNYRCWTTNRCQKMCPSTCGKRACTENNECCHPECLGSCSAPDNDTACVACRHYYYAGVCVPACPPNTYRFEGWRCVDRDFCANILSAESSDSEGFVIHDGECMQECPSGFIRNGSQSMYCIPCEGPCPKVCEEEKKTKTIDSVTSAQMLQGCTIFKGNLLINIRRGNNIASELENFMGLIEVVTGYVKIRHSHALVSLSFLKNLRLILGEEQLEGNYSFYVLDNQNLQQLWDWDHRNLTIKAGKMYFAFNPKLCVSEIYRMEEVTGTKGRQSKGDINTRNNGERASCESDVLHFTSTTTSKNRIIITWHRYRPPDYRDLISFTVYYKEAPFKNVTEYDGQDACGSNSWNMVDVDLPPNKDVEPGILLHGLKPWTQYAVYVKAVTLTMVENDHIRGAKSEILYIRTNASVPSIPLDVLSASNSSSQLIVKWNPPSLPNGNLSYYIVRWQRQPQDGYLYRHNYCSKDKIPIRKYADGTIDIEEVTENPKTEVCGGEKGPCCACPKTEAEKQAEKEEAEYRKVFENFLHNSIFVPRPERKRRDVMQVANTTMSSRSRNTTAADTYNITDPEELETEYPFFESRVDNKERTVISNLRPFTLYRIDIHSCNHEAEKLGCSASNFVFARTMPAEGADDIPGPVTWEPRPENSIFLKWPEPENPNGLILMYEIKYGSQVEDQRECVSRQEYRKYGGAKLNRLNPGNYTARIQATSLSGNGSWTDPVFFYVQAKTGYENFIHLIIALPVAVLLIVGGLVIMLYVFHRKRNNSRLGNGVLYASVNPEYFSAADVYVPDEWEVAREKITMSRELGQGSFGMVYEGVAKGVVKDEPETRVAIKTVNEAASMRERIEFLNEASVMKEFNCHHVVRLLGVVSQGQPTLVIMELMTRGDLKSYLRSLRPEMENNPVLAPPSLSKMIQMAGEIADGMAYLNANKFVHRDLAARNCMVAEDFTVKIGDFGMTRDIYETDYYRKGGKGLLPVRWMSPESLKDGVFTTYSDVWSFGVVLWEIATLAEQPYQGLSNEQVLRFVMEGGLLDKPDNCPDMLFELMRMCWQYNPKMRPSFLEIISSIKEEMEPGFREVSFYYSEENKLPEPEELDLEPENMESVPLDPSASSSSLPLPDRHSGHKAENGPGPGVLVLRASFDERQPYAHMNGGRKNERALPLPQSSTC

| Compound | NCI-H1299, MTS cell kill % inhibition [1] | MDA-MB-231, MTS cell kill % inhibition [2] | IGF-1R, PCT INH (30 μM), ELISA [3] | DLD-1, MTS cell kill % inhibition [4] | KATO III, MTS cell kill % inhibition [5] | inhibition at 10 µM [1] | inhibition at 10 µM [2] | inhibition at 30 µM [3] | inhibition at 10 µM [4] | inhibition at 10 µM [5] |
| --- | --- | --- | --- | --- | --- | --- | --- | --- | --- | --- |
| 3-[3-biphenyl-4-yl-5-({[3- (dimethylamino)propyl](methyl) amino}methyl)-1H-indol-2- yl]pyridin-2(1H)-one [Compound 53] | A (A = 80-100% inhibition) | A (A = 80-100% inhibition) | C (C = <50% inhibition) | A (A = 80-100% inhibition) | A (A = 80-100% inhibition) |  |  |  |  |  |
| 3-biphenyl-4-yl-N-(2- chlorophenyl)-2-(2-oxo-1,2- dihydropyridin-3-yl)-1H- indole-5-carboxamide [Compound 35] | C (C = <50% inhibition) | C (C = <50% inhibition) | C (C = <50% inhibition) | C (C = <50% inhibition) | C (C = <50% inhibition) |  |  |  |  |  |
| O=C(NCc1ccc(F)cc1F)c1ccc2[nH]c(-c3ccc[nH]c3=O)c(-c3ccccc3)c2c1 [Compound 10, N-(2,4-difluorobenzyl)-2-(2-oxo-1,2-dihydropyridin-3-yl)-3-phenyl-1H-indole-5-carboxamide] |  |  |  |  |  | 80 to 100% | < 50% | 80 to 100% | 80 to 100% | 80 to 100% |
| COCC(C)NC(=O)c1ccc2[nH]c(-c3ccc[nH]c3=O)c(-c3ccccc3)c2c1 (stereo not shown) [Compound 11, N-(2-methoxy-1-methylethyl)-2-(2-oxo-1,2-dihydropyridin-3-yl)-3-phenyl-1H-indole-5-carboxamide] |  |  |  |  |  | 50 to 79% | < 50% | 80 to 100% | 50 to 79% | 80 to 100% |
| O=C(c1ccc2[nH]c(-c3ccc[nH]c3=O)c(-c3ccccc3)c2c1)N1CCN(c2ccccc2F)CC1 [Compound 14, 3-(5-{[4-(2-fluorophenyl)piperazin-1-yl]carbonyl) -3-phenyl-1H-indol-2-yl)pyridin-2(1H)-one] |  |  |  |  |  | 50 to 79% |  | 80 to 100% | 50 to 79% | 80 to 100% |
| O=C(Nc1ccc(F)cc1Cl)c1ccc2[nH]c(-c3ccc[nH]c3=O)c(-c3ccccc3)c2c1 [Compound 18, N-(2-chloro-4-fluorophenyl)-2-(2-oxo-1,2-dihydropyridin-3-yl)-3-phenyl-1H-indole-5-carboxamide] |  |  |  |  |  | 80 to 100% | < 50% | < 50% | 50 to 79% | 50 to 79% |
| COc1cccc(CCNC(=O)c2ccc3[nH]c(-c4ccc[nH]c4=O)c(-c4ccccc4)c3c2)c1OC [Compound 19, N-[2-(2,3-dimethoxyphenyl)ethyl]-2-(2-oxo-1,2-dihydropyridin-3-yl)-3-phenyl-1H-indole-5-carboxamide] |  |  |  |  |  | 80 to 100% | 80 to 100% | 80 to 100% | 80 to 100% | 80 to 100% |
| CN(C(=O)c1ccc2[nH]c(-c3ccc[nH]c3=O)c(-c3ccccc3)c2c1)c1ccc(F)cc1 [Compound 20, N-(4-fluorophenyl)-N-methyl-2-(2-oxo-1,2-dihydropyridin-3-yl)-3-phenyl-1H-indole-5-carboxamide] |  |  |  |  |  | 80 to 100% | 80 to 100% | 80 to 100% | 80 to 100% | 80 to 100% |
| COc1cc2c(cc1OC)CN(C(=O)c1ccc3[nH]c(-c4ccc[nH]c4=O)c(-c4ccccc4)c3c1)CC2 [Compound 21, 3-{5-[(6,7-dimethoxy-3,4-dihydroisoquinolin-2(1H)-yl)carbonyl]-3-phenyl-1H-indol-2-yl}pyridin-2(1H)-one] |  |  |  |  |  | 80 to 100% |  | < 50% | 50 to 79% | 80 to 100% |
| CN(CCc1ccccc1)C(=O)c1ccc2[nH]c(-c3ccc[nH]c3=O)c(-c3ccccc3)c2c1 [Compound 23, N-methyl-2-(2-oxo-1,2-dihydropyridin-3-yl)-3-phenyl-N-(2-phenylethyl)-1H-indole-5-carboxamide] |  |  |  |  |  | 80 to 100% | 80 to 100% | 80 to 100% | 80 to 100% | 80 to 100% |
| CCOC(=O)N1CCN(C(=O)c2ccc3[nH]c(-c4ccc[nH]c4=O)c(-c4ccccc4)c3c2)CC1 [Compound 24, ethyl 4-{[2-(2-oxo-1,2-dihydropyridin-3-yl)-3-phenyl-1H-indol-5-yl]carbonyl}piperazine-1-carboxylate] |  |  |  |  |  | 50 to 79% |  | 80 to 100% | 50 to 79% | 80 to 100% |
| O=C(c1ccc2[nH]c(-c3ccc[nH]c3=O)c(-c3ccccc3)c2c1)N1CCN(c2cnccn2)CC1 [Compound 25, 3-{3-phenyl-5-[(4-pyrazin-2-ylpiperazin-1-yl)carbonyl]-1H-indol-2-yl}pyridin-2(1H)-one] |  |  |  |  |  | 50 to 79% |  | 80 to 100% | 50 to 79% | 80 to 100% |
| O=C(NC1CCC1)c1ccc2[nH]c(-c3ccc[nH]c3=O)c(-c3ccccc3)c2c1 [Compound 26, N-cyclobutyl-2-(2-oxo-1,2-dihydropyridin-3-yl)-3-phenyl-1H-indole-5-carboxamide] |  |  |  |  |  | 80 to 100% | 80 to 100% | 80 to 100% | 80 to 100% | 80 to 100% |
| O=C(NCCOc1ccccc1)c1ccc2[nH]c(-c3ccc[nH]c3=O)c(-c3ccccc3)c2c1 [Compound 31, 2-(2-oxo-1,2-dihydropyridin-3-yl)-N-(2-phenoxyethyl)-3-phenyl-1H-indole-5-carboxamide] |  |  |  |  |  | 80 to 100% | < 50% | 80 to 100% | 50 to 79% | 80 to 100% |
| COc1ccc(CNC(=O)c2ccc3[nH]c(-c4ccc[nH]c4=O)c(-c4ccccc4)c3c2)cc1OC [Compound 32, N-(3,4-dimethoxybenzyl)-2-(2-oxo-1,2-dihydropyridin-3-yl)-3-phenyl-1H-indole-5-carboxamide] |  |  |  |  |  | 80 to 100% | < 50% | 80 to 100% | 50 to 79% | 80 to 100% |
| O=C(NCc1ccc(F)cc1F)c1ccc2[nH]c(-c3ccc[nH]c3=O)c(-c3ccc(-c4ccccc4)cc3)c2c1 [Compound 34, 3-biphenyl-4-yl-N-(2,4-difluorobenzyl)-2-(2-oxo-1,2-dihydropyridin-3-yl)-1H-indole-5-carboxamide] |  |  |  |  |  | 50 to 79% | 50 to 79% |  | 50 to 79% | 80 to 100% |
| O=C(c1ccc2[nH]c(-c3ccc[nH]c3=O)c(-c3ccc(-c4ccccc4)cc3)c2c1)N1CCN(CCN2CCOCC2)CC1 [Compound 37, 3-(3-biphenyl-4-yl-5-{[4-(2-morpholin-4-ylethyl)piperazin-1-yl]carbonyl]-1H-indol-2-yl)pyridin-2(1H)-one] |  |  |  |  |  | 80 to 100% | 80 to 100% | 80 to 100% | 80 to 100% | 80 to 100% |
| CN(C)CCCNC(=O)c1ccc2[nH]c(-c3ccc[nH]c3=O)c(-c3ccc(-c4ccccc4)cc3)c2c1 [Compound 49, 3-biphenyl-4-yl-N-[3-(dimethylamino)propyl]-2-(2-oxo-1,2-dihydropyridin-3-yl)-1H-indole-5-carboxamide] |  |  |  |  |  | 80 to 100% | 80 to 100% |  | 80 to 100% | 80 to 100% |
| COc1ccc(-c2c(-c3ccc[nH]c3=O)[nH]c3ccc(C(=O)NCCCN4CCOCC4)cc23)c(OC)c1 [Compound 81, 3-(2,4-dimethoxyphenyl)-N-(3-morpholin-4-ylpropyl)-2-(2-oxo-1,2-dihydropyridin-3-yl)-1H-indole-5-carboxamide] |  |  |  |  |  | < 50% |  | 80 to 100% | < 50% | < 50% |
